Data taken from article PMC7933930, “Development of a small molecule that corrects misfolding and increases secretion of Z α1‐antitrypsin” (EMBO Molecular Medicine, 2021).

Legend:
α1‐antitrypsin = test: SYPRO Orange thermal shift assay; type: biochemical, human; conditions: 50μM GSK716
Excerpt: Polymerisation of α1‐antitrypsin involves transition through a transient intermediate state known as M*, that is readily populated by the Z variant (Dafforn et al, 1999; Knaupp et al, 2010). The M* conformational ensemble appears to be a distinct species between the native state conformation and that of the final polymer. One of the hallmarks of M* is its recognition by environment‐sensitive fluorescent reporter dyes. Thermal shift assays that make use of the dye SYPRO Orange report the stability of the protein native state against heat‐induced unfolding. […] Native state stability can also be probed by equilibrium unfolding using chemical denaturants, where a peak in bis‐ANS fluorescence corresponds with a maximally populated unfolding intermediate (James & Bottomley, 1998). […] The association of GSK716 induced a marked quenching and blue‐shift of the α1‐antitrypsin intrinsic tryptophan fluorescence spectrum (Fig 4D, inset). The rate of change in fluorescence during association of 10µM GSK716 was proportional to the propensity of α1‐antitrypsin mutants to form polymers in vivo: inert (M), mild (S), moderate (Baghdad) and severe (Z) α1‐antitrypsin (Fig 4D, top and bottom). […]

Dopamine D1 = Dopamine D1 (Homo sapiens, UniProt P21728); test: Off‐target panel: Dopamine D1; type: cell-based
Protocol: GSK716 selectivity and PK properties were profiled in order to investigate the suitability of GSK716 for progression into in vivo studies and the potential for taking it forward as a clinical candidate for testing in humans. Since GSK716 results in loss of inhibitory activity of α1‐antitrypsin, the effect of the compound was assessed on other closely related serpins. […] Furthermore, there were no off‐target effects in a panel of assays considered predictive of known safety liabilities that precluded further development of GSK716 (Table EV1).

Dopamine D1, sequence (P21728 whole entry): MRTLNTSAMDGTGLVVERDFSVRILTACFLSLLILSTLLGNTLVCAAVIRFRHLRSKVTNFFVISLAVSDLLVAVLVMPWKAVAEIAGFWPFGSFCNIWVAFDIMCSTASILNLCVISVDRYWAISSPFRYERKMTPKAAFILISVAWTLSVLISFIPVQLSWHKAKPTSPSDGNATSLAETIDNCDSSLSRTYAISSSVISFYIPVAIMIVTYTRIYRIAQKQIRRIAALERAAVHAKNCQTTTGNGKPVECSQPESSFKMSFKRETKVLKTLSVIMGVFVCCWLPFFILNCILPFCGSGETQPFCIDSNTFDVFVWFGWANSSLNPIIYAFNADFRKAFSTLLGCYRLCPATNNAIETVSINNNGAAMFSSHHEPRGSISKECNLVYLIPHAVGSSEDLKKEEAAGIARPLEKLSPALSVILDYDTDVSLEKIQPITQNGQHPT

CCC[C@@H](NC(=O)c1cccc2c1CC(=O)N2)[C@@H](O)c1cccc(F)c1C [GSK716]
transition midpoint temperature (α1‐antitrypsin): marked increase
IC50 (Dopamine D1): > 100 µM
